{"source": "patent US20230406850A1", "about": "“CRYSTALLINE FORM OF HETEROCYCLIC COMPOUND, PREPARATION METHOD THEREFOR AND APPLICATION THEREOF” (WUHAN LL SCIENCE AND TECHNOLOGY DEVELOPMENT CO., LTD., priority 2020, published 2023)", "key": {"[1]": {"target": "T1, hP2X3 (human purinergic P2X receptor subtype 3) (Homo sapiens, UniProt P56373)", "T1 construct": "expressed in transfected cells", "T1 sequence (P56373 1-397)": "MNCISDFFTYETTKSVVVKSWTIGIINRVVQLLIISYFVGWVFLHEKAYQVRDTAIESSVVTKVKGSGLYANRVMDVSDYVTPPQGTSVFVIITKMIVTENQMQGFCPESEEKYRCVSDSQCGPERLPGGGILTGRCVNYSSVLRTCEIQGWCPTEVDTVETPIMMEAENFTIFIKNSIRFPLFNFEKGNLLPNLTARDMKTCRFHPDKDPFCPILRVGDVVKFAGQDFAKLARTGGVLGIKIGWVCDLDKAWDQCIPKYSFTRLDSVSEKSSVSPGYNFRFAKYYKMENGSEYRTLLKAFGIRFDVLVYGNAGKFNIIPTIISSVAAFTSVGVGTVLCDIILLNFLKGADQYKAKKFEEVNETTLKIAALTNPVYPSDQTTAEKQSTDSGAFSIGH", "assay": "FLIPR intracellular calcium assay, hP2X3 in HEK293 cells", "type": "cell-based", "details": "agonist BZ-ATP 2.5 μM, read-out: P2X3 IC50", "method": "18-24 hours before the FLIPR experiment, cells were seeded into 384 wells (10,000 cells/well) at a density of 400,000 cells/mL and incubated overnight in a cell culture incubator. […] 10 μL of test compound (dissolved at 10 mM in DMSO and serially diluted with buffer) or vehicle was then added to each well and allowed to equilibrate for 30 min at room temperature."}, "[2]": {"test_system": "Dunkin Hartley guinea pigs, citric acid induced cough", "assay": "Simple citric acid cough model", "type": "in vivo, guinea pig", "details": "30 mg/kg", "method": "Male Dunkin Hartley guinea pigs (300-350 g) were placed in the animal atomization box, the door of the atomization box was closed, and the ultrasonic atomizer (Guangdong Yuehua) was opened at the same time, at the maximum atomization amount (about 2 mL/min) 17.5% citric acid gas was filled with the atomization box, which was continuously atomized for 20 seconds, and the cough performance of the animals was continuously observed within 10 min after the atomization started. During the 10-minute observation period, manual counting of coughs was required, and the number of coughs was judged according to the guinea pig's coughing posture, such as abdominal twitching, mouth opening, head down hooking, etc., as well as the sound of coughing, the number of coughs in the first 5 minutes and the number of coughs in the first 10 minutes were recorded, and the cough incubation period of guinea pigs was also recorded, that is, the time from citric acid induction to the first cough as well as the sound of coughing."}, "SD rats": {"test_system": "SD rats", "assay": "Taste disorder test by double bottle method", "type": "in vivo, rat", "details": "for Quinine/tap water * 100%: single intraperitoneal injection, 15 minutes", "excerpt": "SPF male SD rats (6-8 weeks) received 3 days of adaptive drinking water training immediately after storage, and the specific training content was that animals were kept in a single cage, and two bottles of water (both common drinking water) were placed in each cage, and during the adaptive training, water treatment was forbidden all night (the drinking water bottle was removed), and drinking water was given again at 8:30 am to 5:30 pm, and then this cycle lasted for 3 days, and the two bottles of water were changed every day, and during the whole adaptive training period, animals were ate freely. All animal water bottles were removed 20 hours before the formal experiment, and water was banned until the time of the experiment. During the formal experiment, all animals were randomly divided into groups, and the test compound or vehicle was given before the water supply was renewed, and the drug was given by single intraperitoneal injection, and the administration time was determined according to the Tmax of the test compound. Then, the animals were placed in a single cage, and given two bottles of drinking water, one bottle of ordinary drinking water and one bottle of 0.3 mM tonic water, and the water consumption of animals was observed within 15 minutes, and the quinine water consumption/ordinary water consumption was statistically analyzed, with positive compound 2 as the positive control of taste disorder."}, "[3]": {"target": "T2, hP2X2/3 (heterodimeric receptors formed by human purinergic P2X receptor subtypes 2 and 3) (Homo sapiens, UniProt P56373+Q9UBL9)", "T2 construct": "expressed in transfected cells", "T2 sequence (P56373 1-397)": "T1 sequence (P56373 1-397)", "T2 sequence (Q9UBL9 1-471)": "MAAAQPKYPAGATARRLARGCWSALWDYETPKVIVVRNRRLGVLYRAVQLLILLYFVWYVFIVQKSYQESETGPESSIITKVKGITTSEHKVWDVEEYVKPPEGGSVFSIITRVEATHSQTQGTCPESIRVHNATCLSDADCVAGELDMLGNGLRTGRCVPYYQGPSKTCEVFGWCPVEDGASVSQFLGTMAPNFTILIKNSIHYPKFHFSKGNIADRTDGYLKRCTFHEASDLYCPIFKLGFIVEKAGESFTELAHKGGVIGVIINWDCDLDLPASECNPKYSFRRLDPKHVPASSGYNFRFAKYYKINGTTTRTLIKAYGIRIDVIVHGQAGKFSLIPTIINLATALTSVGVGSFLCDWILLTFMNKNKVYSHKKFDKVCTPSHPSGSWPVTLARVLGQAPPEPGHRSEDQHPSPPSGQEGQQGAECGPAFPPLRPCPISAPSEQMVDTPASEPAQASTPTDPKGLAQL", "assay": "FLIPR intracellular calcium assay, hP2X2/3 in HEK293 cells (selectivity)", "type": "cell-based", "method": "18-24 hours before the FLIPR experiment, cells were seeded into 96 wells (25000 cells/well) ata density of 250000 cells/mL and incubated overnight in a cell culture incubator. […] 75 μL 1 mM Fluo-4 AM fluorescent dye (Thermo, F14202) was added to each well, and the dye load was incubated for 1.0 hour at 37° C. Then, the 96-well plate was washed once with buffer, and 50 μL of buffer containing test compound or vehicle was added to each well, and it was incubated at room temperature for 30 minutes. […] Then agonist (BZ-ATP (Sigma, B6396) at a final concentration of 5 μM) or vehicle (ultrapure water) was added at 50 μL/well, the fluorescence value was measured at 1-second intervals for 2 minutes, and finally the output fluorescence was counted analysis."}, "[4]": {"test_system": "Dunkin Hartley guinea pigs, ATP-citric acid induced cough", "assay": "ATP-citric acid cough model", "type": "in vivo, guinea pig", "method": "Male Dunkin Hartley guinea pigs (300-400 g) were placed in a whole-body volume scanning box for 3 to 5 minutes, and then subjected to ATP atomization for 2 minutes, with an interval of 3 minutes, followed by citric acid atomization for 5 minutes, and all atomization rates were about 300 μL/min. From citrate acid atomization, cough times and cough latency of animals within 10 min were recorded. During the 10-minute observation period, manual counting of coughs was required, and the number of coughs was judged according to the guinea pig's coughing posture, such as abdominal twitching, mouth opening, head down hooking, etc., as well as the sound of coughing, the number of coughs in the first 10 minutes were recorded, and the cough incubation period of guinea pigs was also recorded.\nAnimals were divided into vehicle group, dextromethorphan (63 mg/kg) positive group, AF-219 (30 mg/kg) positive group and compound 172 (3, 10, 30 mg/kg) administration group of Embodiment. All compounds were administered orally, except dextromethorphan, which was administered 40 minutes before ATP-citric acid exposure, and the rest compounds were […]."}}}
{"smiles": "COC(=O)N1CCO[C@@H](Cc2c(-c3c(F)cc(S(N)(=O)=O)cc3F)nc3cc(Cl)ccn23)C1", "note": "[Compound 172, methyl (S)-2-((7-chloro-2-(2,6-difluoro-4-sulfamoylphenyl)imidazo[1,2-a]pyridin-3-yl)methyl)morpholine-4-carboxylate]", "values": [{"measurement": "IC50", "setting": "[1]", "value": 0.7, "unit": "nM"}, {"measurement": "efficacy in words", "setting": "[2]", "value": "comparable to the efficacy of positive compound"}, {"measurement": "Quinine/tap water * 100%", "setting": "SD rats; 5 mg/kg", "value": 7.05, "unit": "%"}, {"measurement": "Quinine/tap water * 100%", "setting": "SD rats; 10 mg/kg", "value": 7.41, "unit": "%"}, {"measurement": "Quinine/tap water * 100%", "setting": "SD rats; 20 mg/kg", "value": 8.66, "unit": "%"}, {"measurement": "effect on quinine/water ratio in words", "setting": "SD rats; 5, 10 and 20 mg/kg", "value": "no obvious effect on the quinine/water ratio of rats"}, {"measurement": "IC50", "setting": "[3]; HEK293 cells, agonist BZ-ATP 5 μM", "value": "> 60000", "unit": "nM"}, {"measurement": "Selectivity multiple", "setting": "[3]; P2X2/3 versus P2X3", "value": ">85714"}, {"measurement": "Cough suppression rate vs Vehicle", "setting": "[4]; 3 mg/kg oral", "value": 30.80, "unit": "%"}, {"measurement": "Cough suppression rate vs Vehicle", "setting": "[4]; 10 mg/kg oral", "value": 51.20, "unit": "%"}, {"measurement": "Cough suppression rate vs Vehicle", "setting": "[4]; 30 mg/kg oral", "value": 52.80, "unit": "%"}, {"measurement": "effect on number of coughs compared with the vehicle group, in words", "setting": "[4]; guinea pig, in vivo", "value": "significantly reduce the number of coughs"}]}
